Assay results taken from patent publication US8519154B2, “Method for treatment of bronchial asthma” (Council of Scientific & Industrial Research, priority 2011, dated 2013).

Experiments:
[1] = tested on: mice; assay: Pentobarbitone induced sleeping time; format: in vivo; details: pentobarbitone 50 mg/kg (i.p) alone
Description: Compound I was administered to mice perorally. […] were administered with sodium pentobarbitone (50 mg/kg, ip). Sleeping time (No righting reflex) (in min) was determined for the control (untreated) and D8 treated animals [Montilla, M P., Cabo, J., Navarro, M C., Risco, S., Jimmenez R S., Aneires, J., The protective and curative action of Withania frutescens leaf extract against CCl4-induced hepatotoxicity. Phytother. Res. 4 (1990) 212-215].

[2] = tested on: mice; assay: Electric shock induced convulsions; format: in vivo, Swiss mice
Description: Convulsion were induced by a single electroshock (50 Hz in frequency, 0.5 ms pulse width, 50 mA current for 0.3 s) applied through bi-polar electrodes attached to the ear pinna on both side using a pulse generator (Ugo Basile, Italy). The convulsive activity (determined by loss of tonic extensor seizure) was recorded in control (untreated) and Compound I were treated (before electro-shock application) animals [Achliya, G S, Wadodkar, S G, Darle, A K., Evaluation of CNS activity of Bramhi Ghrita. Indian J. Pharmacol. 37 (2005) 33-36].
Anti-convulsant activity was measured by electric shock induced seizure. Five Swiss mice were used for one dose of drug. Convulsion were induced by a single electroshock (50 Hz in frequency, 0.5 ms pulse width, 50 mA current for 0.3 s) applied through bi-polar electrodes attached to the ear pinna on both side by a pulse generator (Ugo Basile, Italy) Test drug were administered orally 60 min before electroshock application, and convulsive activity was determined by loss of tonic extensor seizure.

[3] = tested on: PDE-4; assay: Phosphodiesterase 4 assay, [3H]cAMP SPA enzyme assay, enzyme preparation from rat heart; format: biochemical
Description: For phosphodiesterase (PDE-4) assay, enzyme preparations were performed from rat heart (Ko et al 2004, Biochemical Pharmacology 68:2087-2094). Heart was excised from anesthetized rat and transfer into normal saline solution. Heart weighing 687 mg was taken and homogenized in 2.5 volumes of homogenization buffer containing 20 mM Tris-Cl, 50 mM NaCl, 2 mM EDTA, 0.1 mM PMSF, […], protease inhibitors 1 μg/μl. The homogenate was centrifuged at 500×g for 5 minute at 4° C. Then sup was taken for further centrifuged at 40,000×g for 30 minute (ultra centrifugation). After centrifugation supernatant was collected for phosphodiesterase assay. Protein concentration was estimated and for each assay, 2.5 μg protein (PDE enzyme preparation) was used. All compounds tested for PDE 4 activity were dissolved in DMSO.
Phosphodiesterase 4 assay: Phosphodiesterase 4 assay was conducted with [^3H] cAMP SPA enzyme assay (GE Amersham, UK) using 2.5 μg enzyme preparation for each well. Into each well 60 μl water, 10 μl assay buffer supplied with the kit, 10 μl compound (inhibitor), 10 μl PDE enzyme or homogenizing buffer (blank) and […] radiolabel led cAMP ([^3H]cAMP, GE Amersham, UK) were added. To check activity of the enzyme without inhibitor (compound) 10 μl DMSO was added in place of inhibitor to a separate well. The reaction mixtures were incubated for […] at 30° C. The reaction was stopped by adding 50 μl SPA bead supplied with the kit. It was then mixed well and allowed to stand at room temperature for 20 min. Breakdown of cAMP in each tube was monitored by β counter. The reading in each tube was obtained in counts per minute (CPM). The reading of the blank tube (without enzyme) was subtracted from each tube to normalize the counts. The enzyme activity was calculated by considering the CPM reading without any inhibitor (compound) as 100.

## CCCC(C)C1(CC)C(=O)NC(=O)NC1=O (centres unmarked) [Pentobarbitone]
[1]
  Sleeping Time (Minutes ± SEM): 75.6 ± 9.4 min

## CCC1(c2ccccc2)C(=O)NC(=O)NC1=O [Phenobarbitone, reference compound]
[2]; 30 mg/kg p.o.
  Convulsions Clonic: 0/5
  Convulsions Tonic: 0/5
  Mortality: 0/5
[2]; positive control
  anti-convulsant activity: significant anti-convulsant activity

## COc1cc(COC(C)=O)cc2c1[nH]c1ccccc12 [V]
[3]; 0.1 μg/ml
  % of Inhibition: 0%
[3]; 1 μg/ml
  % of Inhibition: 11.80%
[3]; 10 μg/ml
  % of Inhibition: 44.2%
